Read-outs that look alike come from different tables or passages of the source.

Results on 5 molecules are retold here after paper PMC7073524 (Marine Drugs, 2020).

For one assay, the target named is rat brain α7 receptors (Rattus norvegicus, UniProt Q05941). The assay can be described thus: biochemical. The format is binding.
The next assay deals with rat brain α4β2 nAChRs (Rattus norvegicus, UniProt P09483+P12390). The assay is described as follows: [3H]-cytisine displacement from rat brain membranes. The format is binding. The conditions noted are these: ± SEM; for Ki: 0.3 nM [3H]-cytisine, 4 °C 4 h; for Hill Slope: [3H]-cytisine displacement. On the procedure:
[^3H]-Cytisine was purchased from New England Nuclear and iodinated α-bungarotoxin [^125I]-BTX from Amersham. […] [^3H]-Cytisine binding experiments were performed according to [57] with several modifications. Rat brain membranes were incubated with [^3H]-cytisine at 4 °C for 4 h. Then, 200 μg of membrane protein was incubated in a final volume of 500 μL binding saline at 4 °C for 4 h, while binding assays with ^125I-bungarotoxin were incubated at 37 °C for 3 h to assure that equilibrium was reached. […] Reactions were terminated by vacuum filtrations through Whatman GF/C filters (presoaked in PEI) using a Brandel cell harvester. Bound [^3H]-cytisine and ^125I-bungarotoxin were measured with liquid scintillation and gamma counters, respectively. Data were analyzed using GraphPad Prism software (San Diego, CA, USA). The data were fit by nonlinear regression analyses to a sigmoidal dose-response with variable slope. Ki values were calculated using the Cheng-Prusoff equation (K i = IC50/(1 + [RL]/Kd RL)) with a Kd RL value for each radioligand that had been previously determined. IC50 is the median inhibition concentration of the experimental compound and [RL] is the concentration of the radioligand.

In assay [1] the target is T1, human α4β2 nAChR (Homo sapiens, UniProt P17787+P43681).
T1 construct: expressed in transfected cells; host or cells: Xenopus laevis oocytes (mRNA injection)
T1 sequence (P43681 29-627 limits assumed): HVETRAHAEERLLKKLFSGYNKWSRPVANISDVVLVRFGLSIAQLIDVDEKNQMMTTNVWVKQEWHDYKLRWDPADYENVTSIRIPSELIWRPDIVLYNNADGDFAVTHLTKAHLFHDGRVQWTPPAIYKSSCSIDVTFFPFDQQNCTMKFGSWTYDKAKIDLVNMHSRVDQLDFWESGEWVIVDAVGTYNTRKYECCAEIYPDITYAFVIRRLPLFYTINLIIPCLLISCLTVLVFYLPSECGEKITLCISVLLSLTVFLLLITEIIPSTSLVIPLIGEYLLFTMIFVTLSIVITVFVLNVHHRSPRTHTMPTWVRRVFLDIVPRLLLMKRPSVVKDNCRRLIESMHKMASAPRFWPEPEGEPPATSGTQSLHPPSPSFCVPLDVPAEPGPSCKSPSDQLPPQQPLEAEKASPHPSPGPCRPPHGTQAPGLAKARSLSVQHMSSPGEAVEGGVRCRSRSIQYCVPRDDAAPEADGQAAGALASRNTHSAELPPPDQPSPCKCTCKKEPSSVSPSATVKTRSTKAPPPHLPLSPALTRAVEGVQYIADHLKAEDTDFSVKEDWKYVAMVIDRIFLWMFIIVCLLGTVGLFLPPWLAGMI
T1 sequence (P17787 26-502): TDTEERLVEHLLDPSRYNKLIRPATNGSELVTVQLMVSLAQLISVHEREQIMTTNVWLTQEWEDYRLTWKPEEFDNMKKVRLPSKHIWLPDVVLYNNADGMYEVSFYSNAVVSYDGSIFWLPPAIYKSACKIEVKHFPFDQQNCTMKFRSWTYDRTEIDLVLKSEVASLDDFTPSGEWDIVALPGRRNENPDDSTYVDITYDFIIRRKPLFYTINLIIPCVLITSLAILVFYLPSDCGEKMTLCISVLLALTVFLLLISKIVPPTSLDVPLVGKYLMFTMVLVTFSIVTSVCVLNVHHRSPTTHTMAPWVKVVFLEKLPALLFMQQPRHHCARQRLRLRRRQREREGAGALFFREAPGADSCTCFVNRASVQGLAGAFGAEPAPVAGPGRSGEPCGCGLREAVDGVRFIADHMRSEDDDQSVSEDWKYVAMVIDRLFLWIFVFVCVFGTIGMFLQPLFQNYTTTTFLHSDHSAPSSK
The assay is described as follows: Two-electrode voltage-clamp, human α4β2 nAChRs expressed in Xenopus oocytes. The format is cell-based. The conditions noted are these: ± SEM; for EC50: EC50, potency, peak current; for Imax (% ACh): efficacy, peak current normalized to 100 µM ACh. The source says:
(§1) It has been especially useful for investigating α7 nAChRs, due to the difficulties that were initially encountered in functional expression of this particular homomeric nAChR in mammalian cells. We measured the peak current response of an oocyte to a given concentration of the compound and expressed its amplitude with respect to the mean response to ACh before and after the compound test concentration.
(§2) Oocytes were harvested from Xenopus laevis frogs obtained from NASCO Scientific Co. (Ft. Atkinson, WI, USA) according to an accepted Kem laboratory Institutional Animal Care Committee (IACUC) approved protocol. We have already described the methods of oocyte injection, perfusion, rapid solution changes, and recording in considerable detail. Oocytes were injected with identical amounts (usually 12 ng) of human α4 and β2 mRNAs for α4β2 nAChR expression, or 20 ng of human α7 mRNAs for α7 nAChR expression. The two-electrode voltage-clamp method was used for recording peak responses (holding Em-50 mV for α4β2 and-60 mV for α7 receptors). […] The oocyte was no longer used if the current response to ACh decreased more than 20% during the experiment. Compounds dissolved in Barth’s saline (pH 7.3) were rapidly administered by an AutoMate perfusion system. Compound applications were separated by a 5 min wash period. We utilized GraphPad Prism software to analyze the data, always assuming a single homogeneous receptor population.
On the technique in general: Two-electrode voltage clamp is typically applied to oocytes expressing channels or transporters.

In another assay the target is T2, human α7 nAChR (Homo sapiens, UniProt P36544).
T2 construct: expressed in transfected cells; host or cells: Xenopus laevis oocytes (mRNA injection)
T2 sequence (P36544 23-502): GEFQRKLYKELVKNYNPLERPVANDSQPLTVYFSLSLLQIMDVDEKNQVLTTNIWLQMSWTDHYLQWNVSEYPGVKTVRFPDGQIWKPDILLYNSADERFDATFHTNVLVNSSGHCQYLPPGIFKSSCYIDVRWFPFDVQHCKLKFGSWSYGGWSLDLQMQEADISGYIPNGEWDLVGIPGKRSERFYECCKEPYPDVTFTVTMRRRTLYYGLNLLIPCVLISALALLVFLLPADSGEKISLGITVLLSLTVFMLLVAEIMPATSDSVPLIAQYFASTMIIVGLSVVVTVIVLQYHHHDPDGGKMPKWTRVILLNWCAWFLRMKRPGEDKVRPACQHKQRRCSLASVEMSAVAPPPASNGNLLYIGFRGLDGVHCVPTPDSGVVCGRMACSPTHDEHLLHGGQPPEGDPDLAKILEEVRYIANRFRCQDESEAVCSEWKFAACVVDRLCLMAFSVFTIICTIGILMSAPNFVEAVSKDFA
The assay is described as follows: Two-electrode voltage-clamp, human α7 nAChRs expressed in Xenopus oocytes. The conditions noted are these: for EC50: EC50, potency, peak current estimates; for EC50 / Imax (% ACh): ± SEM; for Imax (% ACh): efficacy, peak current normalized to 1 mM ACh; for agonist character at α7 nAChRs: in words. The format is cell-based.
Excerpt: as §1, §2

Assay [2] has as its target T1, human α4β2 nAChR. The conditions noted are these: human α4β2 nAChRs; ref Kem et al., in preparation; cited from earlier work.

rat brain α4β2 nAChRs, sequence (P09483 31-630): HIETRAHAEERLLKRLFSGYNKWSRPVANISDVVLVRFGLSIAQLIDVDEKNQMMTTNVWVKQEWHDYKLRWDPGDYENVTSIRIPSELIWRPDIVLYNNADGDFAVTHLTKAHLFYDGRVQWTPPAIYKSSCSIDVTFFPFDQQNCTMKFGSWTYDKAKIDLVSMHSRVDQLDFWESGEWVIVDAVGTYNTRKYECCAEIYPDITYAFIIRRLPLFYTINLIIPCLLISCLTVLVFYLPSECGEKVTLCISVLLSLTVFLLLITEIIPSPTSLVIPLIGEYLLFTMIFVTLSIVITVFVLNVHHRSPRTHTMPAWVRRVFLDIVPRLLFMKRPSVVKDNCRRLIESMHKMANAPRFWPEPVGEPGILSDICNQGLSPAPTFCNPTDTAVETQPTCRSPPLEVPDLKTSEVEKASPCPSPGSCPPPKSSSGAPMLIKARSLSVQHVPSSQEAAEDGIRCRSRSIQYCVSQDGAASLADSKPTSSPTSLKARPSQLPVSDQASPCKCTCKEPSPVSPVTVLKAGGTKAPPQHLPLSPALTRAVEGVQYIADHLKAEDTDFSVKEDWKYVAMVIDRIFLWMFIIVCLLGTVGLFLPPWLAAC
rat brain α4β2 nAChRs, sequence (P12390 25-500): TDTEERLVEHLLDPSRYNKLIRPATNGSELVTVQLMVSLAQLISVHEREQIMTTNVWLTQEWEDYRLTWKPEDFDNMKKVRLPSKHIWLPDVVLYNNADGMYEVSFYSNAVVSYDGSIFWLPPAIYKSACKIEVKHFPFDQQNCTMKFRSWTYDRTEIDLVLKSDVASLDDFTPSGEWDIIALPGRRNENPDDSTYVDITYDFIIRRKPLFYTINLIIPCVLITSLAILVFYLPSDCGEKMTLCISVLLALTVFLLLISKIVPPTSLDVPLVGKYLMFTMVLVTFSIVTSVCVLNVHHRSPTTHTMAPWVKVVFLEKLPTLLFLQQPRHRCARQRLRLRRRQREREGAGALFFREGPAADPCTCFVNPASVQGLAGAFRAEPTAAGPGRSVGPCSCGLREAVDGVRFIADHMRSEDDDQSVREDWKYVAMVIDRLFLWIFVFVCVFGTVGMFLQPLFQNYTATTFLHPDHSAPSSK
rat brain α7 receptors, sequence (Q05941 23-502): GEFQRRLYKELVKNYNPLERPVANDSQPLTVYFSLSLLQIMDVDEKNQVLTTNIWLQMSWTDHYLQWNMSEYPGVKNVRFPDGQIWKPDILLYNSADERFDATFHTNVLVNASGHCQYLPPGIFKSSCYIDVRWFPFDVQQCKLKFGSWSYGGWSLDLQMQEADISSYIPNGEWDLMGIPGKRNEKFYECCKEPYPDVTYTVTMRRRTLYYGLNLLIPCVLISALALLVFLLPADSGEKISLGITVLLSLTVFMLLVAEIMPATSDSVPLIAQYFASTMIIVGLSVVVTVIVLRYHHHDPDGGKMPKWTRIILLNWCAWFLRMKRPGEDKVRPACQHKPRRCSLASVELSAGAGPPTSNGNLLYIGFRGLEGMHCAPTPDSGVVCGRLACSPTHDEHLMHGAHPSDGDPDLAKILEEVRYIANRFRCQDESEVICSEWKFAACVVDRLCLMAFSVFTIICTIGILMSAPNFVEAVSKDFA

Consider `C1=CC[C@H](c2cccnc2)NC1` [R-anatabine, anatabine], for which the affinity on rat brain α7 receptors corresponds to a Ki of 680 ± 120 nM.
`C1=CC(c2cccnc2)NCC1` (stereo not drawn) [R-isoanatabine, isoanatabine]: at rat brain α4β2 nAChRs, the Ki (in general, the equilibrium dissociation constant of an inhibitor or competing ligand from its target) was determined as 136 ± 11 nM and the “Hill Slope” value is listed as 0.94 ± 0.05. Also, on human α4β2 nAChR [1], the 50% effective concentration (EC50) (as a rule, the concentration needed to bring the measured effect to its halfway point) worked out at 310 ± 90 nM and the “Imax (% ACh)” value came out at 102 ± 5.7 %ACh. At human α7 nAChR, the EC50 is 61300 ± 12000 nM, the “Imax (% ACh)” value worked out at 35.4 ± 5.3 % ACh and the “agonist character at α7 nAChRs” value is “weak partial agonist”.
In the case of `c1cncc([C@@H]2CCCCN2)c1` [S-anabasine, anabasine], at human α4β2 nAChR [2], the EC50 was 4000 nM and the Imax is given as 78%.
Regarding `C1=CC[C@@H](c2cccnc2)NC1` [S-anatabine, anatabine], on rat brain α7 receptors, the Ki turned out to be 236 ± 20 nM.
`C1=CC(c2cccnc2)NCC1` (stereo not drawn) [S-isoanatabine, isoanatabine]: on rat brain α4β2 nAChRs, the affinity corresponds to a Ki of 108 ± 14 nM and the “Hill Slope” value turned out to be 1.08 ± 0.15. On human α4β2 nAChR [1], the midpoint of the response, the EC50, lay at 1010 ± 330 nM and the “Imax (% ACh)” value is recorded as 78.7 ± 1.9 %ACh. For the same molecule, at human α7 nAChR, the EC50 is 52300 ± 13000 nM, the “Imax (% ACh)” value turned out to be 81.9 ± 9.1 % ACh and the “agonist character at α7 nAChRs” value was “highly efficacious agonists”.
